Test results: PMC12395308 (ACS Central Science, 2025)
≈ marks a conversion by molar mass, not a printed value.

Assays:
[1] = Derivatization-based quantification of hydrazine in mice plasma using LC-MS; details: for plasma concentration of in vivo released Hz: post 24hrs of 6th dose, repetitive oral dosing for six days; for plasma level of released Hz: single oral dose (10 mg/kg INH or equivalent), all time points 0.083–24 h
[2] = system: pyridoxal and pyridoxal-5′-phosphate; experiment: Quantification of pyridoxal and pyridoxal-5-phosphate in mice liver; details: repeat-dose study; INH 90 mg/kg, 1d 117.5 mg/kg
[3] = In vivo plasma exposure after repetitive single oral dosing for 10 consecutive days; details: for eAUC20m–6h (AcHz): 10th dose, oral, molar equivalent of 10 mg/kg INH
[4] = Lipophilicity (logD) by shake flask method
[5] = Complete pharmacokinetic analysis after a single oral dose; details: for plasma level of AcHz formed in vivo: all time points 0.083–24 h
[6] = Comparative plasma exposure after a single oral dose at three incremental dose levels; details: for plasma concentration of INH (mean): oral 1mg/Kg; for concentration at 2 h / concentration at 6 h: Balb/C, mouse, plasma, po
[7] = Human liver microsomal stability analysis; details: for percentage of 1d/INH remaining after 2 h of incubation, human liver microsomes: 50 μM, 1 mg/mL microsomes, 1 mM NADPH
[8] = Comparative pharmacokinetic analysis after a single intravenous dose
[9] = Aqueous stability in acidic and basic buffer (HPLC); details: post 24 h of incubation; for chemical stability, pH (7.6): percentage of parent remaining: basic buffer
[10] = Aqueous solubility in Tris HCl buffer (pH 7.4), shake flask method; details: 37 °C, pH 7.4, aqueous buffer, thermodynamic from solid
[11] = Chemical stability in neat DMSO (UV spectrophotometer); details: post 24 h of incubation
[12] = Intestinal homogenate conversion assay; format: in vitro ADME, mice; details: 50 μg/mL
[13] = In vivo plasma exposure after a single oral dose (RACE-PK); details: single oral dose 10 mg/kg
[14] = Mouse liver homogenate conversion assay; format: in vitro ADME
[15] = Bioconversion of prodrugs in plasma, ex vivo (mice); details: 200 μg/mL
[16] = Stomach homogenate conversion assay; format: in vitro ADME, mice; details: 50 μg/mL
[17] = Bioconversion of prodrugs in plasma, ex vivo (human); details: 200 μg/mL
[18] = Balb/C, mouse, plasma, po, 10 mg/kg of INH (prodrugs at molar equivalent)
[19] = Balb/C, mouse, plasma, iv, 1 mg/kg

NNC(=O)c1ccncc1 [INH, Isoniazid, reference compound]
plasma concentration of in vivo released Hz [1]: BLQ
plasma level of released Hz [1]: BLQ
liver tissue levels of pyridoxal and pyridoxal-5′-phosphate [2]: comparable
eAUC20m–6h (AcHz) [3]: BLQ ^d
feed intake per cage ([3]; day 0, cage of n=3): 9 g
feed intake per cage ([3]; day 1, cage of n=3): 13 g
feed intake per cage ([3]; day 2, cage of n=3): 11 g
feed intake per cage ([3]; day 3, cage of n=3): 9 g
feed intake per cage ([3]; day 4, cage of n=3): 11.5 g
feed intake per cage ([3]; day 5, cage of n=3): 15.5 g
feed intake per cage ([3]; day 6, cage of n=3): 13.5 g
feed intake per cage ([3]; day 7, cage of n=3): 14 g
feed intake per cage ([3]; day 8, cage of n=3): 14 g
feed intake per cage ([3]; day 9, cage of n=3): 15 g
feed intake per cage ([3]; day 10, cage of n=3): 15 g
logD [4]: -0.8
plasma concentration of released INA (mean) ([5]; single oral dose, 4 h): BLQ
plasma concentration of free INH (mean) ([5]; single oral dose, 6 h): BLQ
plasma concentration of released AcINH (mean) ([5]; single oral dose, 6 h): BLQ
plasma concentration of released INA (mean) ([5]; single oral dose, 6 h): BLQ
plasma concentration of free INH (mean) ([5]; single oral dose, 24 h): BLQ
plasma concentration of released AcINH (mean) ([5]; single oral dose, 24 h): BLQ
plasma concentration of released INA (mean) ([5]; single oral dose, 24 h): BLQ
plasma level of AcHz formed in vivo ([5]; single oral dose): BLQ
plasma concentration of INH (mean) ([6]; 2 h): BLQ
plasma concentration of INH (mean) ([6]; 6 h): BLQ
percentage of 1d/INH remaining after 2 h of incubation, human liver microsomes [7]: 66%
plasma concentration of released INA (mean) ([8]; single IV dose, 0.33 h): BLQ
plasma concentration of released INA (mean) ([8]; single IV dose, 1 h): BLQ
plasma concentration of released AcINH (mean) ([8]; single IV dose, 2 h): BLQ
plasma concentration of released INA (mean) ([8]; single IV dose, 2 h): BLQ
plasma concentration of released AcINH (mean) ([8]; single IV dose, 4 h): BLQ
plasma concentration of released INA (mean) ([8]; single IV dose, 4 h): BLQ
plasma concentration of released AcINH (mean) ([8]; single IV dose, 6 h): BLQ
plasma concentration of released INA (mean) ([8]; single IV dose, 6 h): BLQ
plasma concentration of released AcINH (mean) ([8]; single IV dose, 8 h): BLQ
plasma concentration of released INA (mean) ([8]; single IV dose, 8 h): BLQ
plasma concentration of released AcINH (mean) ([8]; single IV dose, 24 h): BLQ
plasma concentration of released INA (mean) ([8]; single IV dose, 24 h): BLQ
chemical stability, pH (3.0): percentage of parent remaining ([9]; acidic buffer): 100.0%
chemical stability, pH (7.6): percentage of parent remaining [9]: 100.0%
solubility at 24 h [10]: 610 mg/mL (≈ 4450 mM)
chemical stability, DMSO: percentage of parent remaining [11]: 100.0%

CC(C)OC(=O)NNC(=O)c1ccncc1.Cl [prodrug 1d]
plasma concentration of in vivo released Hz [1]: BLQ
plasma level of released Hz [1]: BLQ
liver tissue levels of pyridoxal and pyridoxal-5′-phosphate [2]: comparable
eAUC20m–6h (AcHz) [3]: BLQ ^d
feed intake per cage ([3]; day 0, cage of n=3): 11 g
feed intake per cage ([3]; day 1, cage of n=3): 11.5 g
feed intake per cage ([3]; day 2, cage of n=3): 10.5 g
feed intake per cage ([3]; day 3, cage of n=3): 10 g
feed intake per cage ([3]; day 4, cage of n=3): 11 g
feed intake per cage ([3]; day 5, cage of n=3): 14.5 g
feed intake per cage ([3]; day 6, cage of n=3): 12 g
feed intake per cage ([3]; day 7, cage of n=3): 12 g
feed intake per cage ([3]; day 8, cage of n=3): 13.5 g
feed intake per cage ([3]; day 9, cage of n=3): 12.5 g
feed intake per cage ([3]; day 10, cage of n=3): 12.5 g
logD [4]: 0.2
eAUC0–20h in intestinal homogenate, prodrug ([12]; 20 h): 728,889 ng·h/mL
percentage of prodrug remaining after 20 h of incubation, intestine homogenate ([12]; ex vivo): 87%
plasma concentration of AcINH at 20 min [13]: BLQ
plasma eAUC20m–120m (AcINH) ([13]; n=3, 10 mg/kg): BLQ and below the limit of quantification and BLQ ^d
concentration at 0.33 h [5, 18]: 18700 ng/mL
concentration at 1 h [5, 18]: 10400 ng/mL
concentration at 2 h [5, 18]: 4620 ng/mL
concentration at 4 h [5, 18]: 942 ng/mL
concentration at 6 h [5, 18]: 347 ng/mL
concentration at 24 h [5, 18]: 152 ng/mL
plasma concentration of released AcINH (mean) ([5]; single oral dose, 0.33 h): BLQ
plasma concentration of released AcINH (mean) ([5]; single oral dose, 1 h): BLQ
plasma concentration of released AcINH (mean) ([5]; single oral dose, 2 h): BLQ
plasma concentration of released AcINH (mean) ([5]; single oral dose, 4 h): BLQ
plasma concentration of released INA (mean) ([5]; single oral dose, 4 h): BLQ
plasma concentration of free INH (mean) ([5]; single oral dose, 6 h): BLQ
plasma concentration of released AcINH (mean) ([5]; single oral dose, 6 h): BLQ
plasma concentration of released INA (mean) ([5]; single oral dose, 6 h): BLQ
plasma concentration of free INH (mean) ([5]; single oral dose, 24 h): BLQ
plasma concentration of released AcINH (mean) ([5]; single oral dose, 24 h): BLQ
plasma concentration of released INA (mean) ([5]; single oral dose, 24 h): BLQ
AUC5m–24h, released AcINH ([5]; single oral dose, INH 10 mg/kg or molar equivalent): BLQ
Vd, unchanged prodrug ([5]; single oral dose, molar equivalent of 10 mg/kg INH): 1.121 ± 0.345 L/kg
plasma level of AcHz formed in vivo ([5]; single oral dose): BLQ
concentration at 2 h ([6]; 1 mg/kg): 332 ng/mL
concentration at 6 h ([6]; 1 mg/kg): 146 ng/mL
concentration at 2 h ([6]; 3 mg/kg): 578 ng/mL
concentration at 6 h ([6]; 3 mg/kg): 151 ng/mL
concentration at 2 h ([6]; 10 mg/kg): 2030 ng/mL
concentration at 6 h ([6]; 10 mg/kg): 217 ng/mL
eAUC20m–6h (unchanged 1d) ([6]; single oral dose 1 mg/kg): 2916 ± 1005 ng·h/mL
eAUC20m–6h (unchanged 1d) ([6]; single oral dose 3 mg/kg): 5799 ± 858 ng·h/mL
eAUC20m–6h (unchanged 1d) ([6]; single oral dose 10 mg/kg): 20,138 ± 2821 ng·h/mL
percentage of 1d remaining after 2 h of incubation, mouse liver homogenate ([14]; 37 °C): 27%
eAUC5–120m of 1d, mouse liver homogenate ([14]; 2 h incubation): 261,525 ng·h/mL
% of prodrug remaining at 20 h, mice plasma ([15]; 37 °C, ex vivo): 23.8%
eAUC20m–20h in mice plasma, prodrug ([15]; 20 h ex vivo incubation): 987 ± 154 ng·h/mL
percentage of 1d/INH remaining after 2 h of incubation, human liver microsomes [7]: 77%
eAUC0–120m of 1d, human liver microsomes ([7]; 2 h incubation): 80,176 ng·h/mL
AUC [8, 19]: 18 ± 1 ng·h/mL
Cmax [8, 19]: 90 ± 5 ng/mL
Tmax [8, 19]: 4.8 min
Vd [8, 19]: 21 L/kg
clearance [8, 19]: 1780 mL/min/kg
concentration at 0.33 h [8, 19]: 53.6 ng/mL
plasma concentration of released AcINH (mean) ([8]; single IV dose, 0.33 h): BLQ
plasma concentration of released INA (mean) ([8]; single IV dose, 0.33 h): BLQ
plasma concentration of released AcINH (mean) ([8]; single IV dose, 1 h): BLQ
plasma concentration of released INA (mean) ([8]; single IV dose, 1 h): BLQ
plasma concentration of unchanged 1d (mean) ([8]; single IV dose, 1 h): BLQ
plasma concentration of released AcINH (mean) ([8]; single IV dose, 2 h): BLQ
plasma concentration of released INA (mean) ([8]; single IV dose, 2 h): BLQ
plasma concentration of unchanged 1d (mean) ([8]; single IV dose, 2 h): BLQ
plasma concentration of released AcINH (mean) ([8]; single IV dose, 4 h): BLQ
plasma concentration of released INA (mean) ([8]; single IV dose, 4 h): BLQ
plasma concentration of unchanged 1d (mean) ([8]; single IV dose, 4 h): BLQ
plasma concentration of released AcINH (mean) ([8]; single IV dose, 6 h): BLQ
plasma concentration of released INA (mean) ([8]; single IV dose, 6 h): BLQ
plasma concentration of unchanged 1d (mean) ([8]; single IV dose, 6 h): BLQ
plasma concentration of released AcINH (mean) ([8]; single IV dose, 8 h): BLQ
plasma concentration of released INA (mean) ([8]; single IV dose, 8 h): BLQ
plasma concentration of unchanged 1d (mean) ([8]; single IV dose, 8 h): BLQ
plasma concentration of released AcINH (mean) ([8]; single IV dose, 24 h): BLQ
plasma concentration of released INA (mean) ([8]; single IV dose, 24 h): BLQ
plasma concentration of unchanged 1d (mean) ([8]; single IV dose, 24 h): BLQ
AUC5m–24h, released AcINH ([8]; single IV dose, INH 1 mg/kg or molar equivalent): no AcINH was observed and BLQ
chemical stability, pH (7.6): percentage of parent remaining [9]: 100.0%
solubility at 24 h ([10]; Tris HCl buffer): 18.6 mg/mL
eAUC0–20h in stomach homogenate, prodrug ([16]; 20 h): 433,081 ng·h/mL
percentage of prodrug remaining after 20 h of incubation, stomach homogenate ([16]; ex vivo): 3%
% of prodrug remaining at 20 h, human plasma ([17]; 37 °C, ex vivo): 40.1%
eAUC20m–20h in human plasma, prodrug ([17]; 20 h ex vivo incubation): 1196 ± 308 ng·h/mL
chemical stability, DMSO: percentage of parent remaining [11]: 100.0%
